Data taken from ChEMBL document CHEMBL3769371, “1-[(2E)-3-Phenylprop-2-enoyl]-1H-benzimidazoles as anticancer agents: synthesis, crystal structure analysis and binding studies of the most potent anticancer molecule with serum albumin” (Medchemcomm, 2015).

What was measured:
[1] = system: M14; assay: Cytotoxicity against human M14 cells assessed as cell growth at 10^-5 M after 48 hrs by SRB assay; assay type: functional; settings: M14, 48 h, read-out: Activity
[2] = biological target: T1, Albumin (Homo sapiens, UniProt P02768); assay: Binding affinity to human serum albumin at 0.25 to 2 uM at 303 K by fluorescence microscopic analysis in the presence of ibuprofen; assay type: ADME; settings: isolated protein
[3] = Cytotoxicity against human OVCAR3 cells after 48 hrs by SRB assay; assay type: functional; settings: OVCAR-3, 48 h
[4] = Cytotoxicity against human TK10 cells after 48 hrs by SRB assay; assay type: functional; settings: TK-10, 48 h
[5] = Cytotoxicity against human RXF393 cells assessed as cell growth at 10^-5 M after 48 hrs by SRB assay; assay type: functional; settings: RXF 393, 48 h, read-out: Activity
[6] = Cytotoxicity against human RXF393 cells after 48 hrs by SRB assay; assay type: functional; settings: RXF 393, 48 h
[7] = Cytotoxicity against human COLO205 cells assessed as cell growth at 10^-5 M after 48 hrs by SRB assay; assay type: functional; settings: COLO 205, 48 h, read-out: Activity
[8] = Cytotoxicity against human OVCAR5 cells after 48 hrs by SRB assay; assay type: functional; settings: OVCAR-5, 48 h, read-out: LC50 (the source's name)
[9] = system: SK-MEL-5; assay: Cytotoxicity against human SK-MEL-5 cells assessed as cell growth at 10^-5 M after 48 hrs by SRB assay; assay type: functional; settings: SK-MEL-5, 48 h, read-out: Activity
[10] = Antiproliferative activity against human SNB75 cells at 10'5 M; assay type: functional, SNB-75
[11] = Cytotoxicity against human UACC62 cells assessed as cell growth at 10^-5 M after 48 hrs by SRB assay; assay type: functional; settings: UACC-62, 48 h, read-out: Activity
[12] = system: KM12; assay: Cytotoxicity against human KM12 cells assessed as cell growth at 10^-5 M after 48 hrs by SRB assay; assay type: functional; settings: KM12, 48 h, read-out: Activity
[13] = system: SK-MEL-28; assay: Cytotoxicity against human SK-MEL-28 cells after 48 hrs by SRB assay; assay type: functional; settings: SK-MEL-28, 48 h
[14] = system: MDA-MB-231; assay: Cytotoxicity against human MDA-MB-231 cells after 48 hrs by SRB assay; assay type: functional; settings: MDA-MB-231, 48 h
[15] = Cytotoxicity against human DU145 cells assessed as cell growth at 10^-5 M after 48 hrs by SRB assay; assay type: functional; settings: DU-145, 48 h, read-out: Activity
[16] = system: MDA-MB-231; assay: Cytotoxicity against human MDA-MB-231 cells assessed as cell growth at 10^-5 M after 48 hrs by SRB assay; assay type: functional; settings: MDA-MB-231, 48 h, read-out: Activity
[17] = Cytotoxicity against human HCT116 cells assessed as cell growth at 10^-5 M after 48 hrs by SRB assay; assay type: functional; settings: HCT-116, 48 h, read-out: Activity
[18] = Cytotoxicity against human SKOV3 cells after 48 hrs by SRB assay; assay type: functional; settings: SK-OV-3, 48 h
[19] = system: MDA-MB-468; assay: Cytotoxicity against human MDA-MB-468 cells assessed as cell growth at 10^-5 M after 48 hrs by SRB assay; assay type: functional; settings: MDA-MB-468, 48 h, read-out: Activity
[20] = system: MDA-MB-435; assay: Cytotoxicity against human MDA-MB-435 cells after 48 hrs by SRB assay; assay type: functional; settings: MDA-MB-435, 48 h
[21] = system: A549; assay: Cytotoxicity against human A549 cells after 48 hrs by SRB assay; assay type: functional; settings: A549, 48 h
[22] = Cytotoxicity against human SNB75 cells after 48 hrs by SRB assay; assay type: functional; settings: SNB-75, 48 h
[23] = biological target: T1, Albumin; assay: Binding affinity to human serum albumin at 0.25 uM at 303 K by fluorescence microscopic analysis in the presence of Ni2+; assay type: ADME; settings: isolated protein
[24] = system: U-251; assay: Cytotoxicity against human U251 cells after 48 hrs by SRB assay; assay type: functional; settings: U-251, 48 h
[25] = biological target: T1, Albumin; assay: Binding affinity to human serum albumin at 0.25 to 2 uM at 303 K by fluorescence microscopic analysis in the presence of phenylbutazone; assay type: ADME; settings: isolated protein
[26] = system: NCI-H322M; assay: Cytotoxicity against human NCI-H322M cells assessed as cell growth at 10^-5 M after 48 hrs by SRB assay; assay type: functional; settings: read-out: Activity
[27] = Antiproliferative activity against human Hs 578T cells at 10'5 M; assay type: functional
[28] = Cytotoxicity against human BT549 cells assessed as cell growth at 10^-5 M after 48 hrs by SRB assay; assay type: functional; settings: BT-549, 48 h, read-out: Activity
[29] = system: NCI-H226; assay: Cytotoxicity against human NCI-H226 cells after 48 hrs by SRB assay; assay type: functional; settings: NCI-H226, 48 h
[30] = Cytotoxicity against human PC3 cells after 48 hrs by SRB assay; assay type: functional; settings: PC-3, 48 h
[31] = system: NCI-H460; assay: Antiproliferative activity against human NCI-H460 cells at 10'5 M; assay type: functional
[32] = system: CCRF-CEM; assay: Cytotoxicity against human CCRF-CEM cells after 48 hrs by SRB assay; assay type: functional
[33] = Cytotoxicity against human SW620 cells after 48 hrs by SRB assay; assay type: functional; settings: SW-620, 48 h
[34] = biological target: T1, Albumin; assay: Binding affinity to human serum albumin at 0.25 uM at 303 K by fluorescence microscopic analysis in the presence of Cu2+; assay type: ADME; settings: isolated protein
[35] = system: 786-0; assay: Cytotoxicity against human 786-0 cells assessed as cell growth at 10^-5 M after 48 hrs by SRB assay; assay type: functional; settings: 786-0, 48 h, read-out: Activity
[36] = system: NCI-H322M; assay: Cytotoxicity against human NCI-H322M cells after 48 hrs by SRB assay; assay type: functional
[37] = system: Malme-3M; assay: Antiproliferative activity against human MALME-3M cells at 10'5 M; assay type: functional
[38] = Antiproliferative activity against human MOLT4 cells at 10'5 M; assay type: functional, MOLT-4
[39] = Cytotoxicity against human OVCAR4 cells assessed as cell growth at 10^-5 M after 48 hrs by SRB assay; assay type: functional; settings: OVCAR-4, 48 h, read-out: Activity
[40] = read-out: LC50 (the source's name)

T1 sequence (P02768 whole entry): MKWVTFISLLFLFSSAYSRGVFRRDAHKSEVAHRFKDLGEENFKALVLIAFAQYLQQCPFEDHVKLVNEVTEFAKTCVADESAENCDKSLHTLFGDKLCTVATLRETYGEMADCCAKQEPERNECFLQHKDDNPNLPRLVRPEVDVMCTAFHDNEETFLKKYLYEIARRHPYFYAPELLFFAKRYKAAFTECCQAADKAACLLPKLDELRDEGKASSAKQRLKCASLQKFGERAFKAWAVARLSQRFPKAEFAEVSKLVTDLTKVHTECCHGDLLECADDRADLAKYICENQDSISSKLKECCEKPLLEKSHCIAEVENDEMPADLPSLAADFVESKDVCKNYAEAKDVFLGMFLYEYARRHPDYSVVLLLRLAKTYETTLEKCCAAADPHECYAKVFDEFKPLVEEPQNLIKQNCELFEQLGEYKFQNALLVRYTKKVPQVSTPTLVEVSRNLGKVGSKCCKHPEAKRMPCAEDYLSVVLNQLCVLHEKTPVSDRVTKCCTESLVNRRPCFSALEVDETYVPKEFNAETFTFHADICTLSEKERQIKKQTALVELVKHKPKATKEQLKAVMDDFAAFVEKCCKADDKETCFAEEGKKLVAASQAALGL

`O=C(/C=C/c1ccccc1)n1c(-c2ccc(Cl)cc2)nc2ccccc21` gave a growth at 10 µM [1] of -37.3%, a K [2] of 5.63 ×10³ /M and a GI50 [3] of 1950 nM. It also gave a TGI [3] of 4.63 µM, a CC50 [3, 40] of 13.4 µM and a GI50 [4] of 2350 nM. The TGI [4] was 7.93 µM, the CC50 [4, 40] was 28 µM and the growth at 10 µM [5] was -65.2%. The GI50 [6] was 1320 nM, the TGI [6] was 3.12 µM and the CC50 [6, 40] was 7.37 µM. It also gave a growth at 10 µM [7] of -60.8%, a CC50 [8] of 49.7 µM and a growth at 10 µM [9] of -70.6%. For the same molecule, the “growth inhibition (GI)” value [10] was 81.93%, the growth at 10 µM [11] was -84.7% and the growth at 10 µM [12] was -62.9%. The GI50 [13] was 2100 nM, the TGI [13] was 4.35 µM and the CC50 [13, 40] was 9.02 µM. It also gave a GI50 [14] of 1880 nM, a TGI [14] of 5.18 µM and a CC50 [14, 40] of 25.4 µM. It also gave a growth at 10 µM [15] of 11.1%, a growth at 10 µM [16] of -26.5% and a growth at 10 µM [17] of -71.5%. For the same molecule, the GI50 [18] was 1490 nM, the TGI [18] was 61.3 µM and the CC50 [18, 40] was over 100 µM. For the same molecule, the growth at 10 µM [19] was -6.61%, the GI50 [20] was 1900 nM and the TGI [20] was 5.05 µM. For the same molecule, the CC50 [20, 40] was 19.6 µM, the GI50 [21] was 380 nM and the TGI [21] was 1880 nM. For the same molecule, the CC50 [21, 40] was over 100 µM, the GI50 [22] was 3.13 µM and the TGI [22] was 12.8 µM. For the same molecule, the CC50 [22, 40] was 40.5 µM, the K [23] was 5.35 ×10³ /mol and the GI50 [24] was 1440 nM. The TGI [24] was 3.77 µM, the CC50 [24, 40] was 9.91 µM and the K [25] was 3.5 ×10³ /M. The growth at 10 µM [26] was 45%, the “growth inhibition (GI)” value [27] was 80.03% and the growth at 10 µM [28] was -50.5%. The GI50 [29] was 1460 nM, the TGI [29] was 3.82 µM and the CC50 [29, 40] was 10 µM. The GI50 [30] was 1910 nM, the TGI [30] was 6.73 µM and the CC50 [30, 40] was 36.3 µM. The “growth inhibition (GI)” value [31] was 99.46%, the GI50 [32] was 730 nM and the TGI [32] was 3.45 µM. For the same molecule, the CC50 [32, 40] was over 100 µM, the GI50 [33] was 1440 nM and the TGI [33] was 2930 nM. The CC50 [33, 40] was 5.97 µM, the K [34] was 2.44 ×10³ /mol and the growth at 10 µM [35] was -17.6%. For the same molecule, the GI50 [36] was 1910 nM, the TGI [36] was 4.89 µM and the CC50 [36, 40] was 20 µM. The “growth inhibition (GI)” value [37] was 84.12%, the “growth inhibition (GI)” value [38] was 78.07% and the growth at 10 µM [39] was 30%.
